{"source": "patent US4921528A", "about": "“Substituted azolylmethyl-cyclopropyl-carbinol derivatives” (Bayer Aktiengesellschaft, priority 1984, dated 1990)", "format_in_all_cases": "in vivo", "key": {"[1]": {"system": "Barley plants", "assay": "Inhibition of growth of barley", "conditions": "sprayed until dripping wet; measured after 3 weeks; compared with prior-art compounds (A), (B), (C) and (D)", "protocol": "Inhibition of growth of barley\n(§1) Solvent: 30 parts by weight of dimethylformamide\n(§2) Emulsifier: 1 part by weight of polyoxyethylene sorbitan monolaurate.\n(§3) To produce a suitable preparation of active compound, 1 part by weight of active compound is mixed with the stated amounts of solvent and emulsifier and the mixture is made up to the desired concentration with water.\nBarley plants are grown in a greenhouse to the 2-leaf stage. In this stage, the plants are sprayed with the preparations of active compound until dripping wet. After 3 weeks, the additional growth is measured on all plants and the inhibition of growth in per cent of the additional growth of the control plants is calculated. 100% inhibition of growth means that growth has stopped and 0% denotes a growth corresponding to that of the control plants."}, "[2]": {"system": "Cotton plants", "assay": "Inhibition of growth of cotton", "conditions": "sprayed until dripping wet; measured after 3 weeks; compared with prior-art compound (A)", "protocol": "Inhibition of growth of cotton\nas §1\nEmulsifier: 1 part by weight of […] sorbitan monolaurate.\nas §3\nCotton plants are grown in a greenhouse until the 5th secondary leaf has unfolded completely. In this stage, the plants are sprayed with the preparations of active compound until dripping wet. After 3 weeks, the additional growth of the plants is measured and the inhibition of growth in per cent of the additional growth of the control plants is calculated. 100% inhibition of growth means that growth has stopped and 0% denotes a growth corresponding to that of the control plants."}, "[3]": {"system": "Rice", "assay": "Inhibition of growth of rice", "conditions": "pots placed in active compound solution; length determined after development of the third leaf", "protocol": "Inhibition of growth of rice\nas §1, §2\nTo prepare a suitable preparation of active compound, 1 part by weight of active compound is mixed with the stated amounts of solvent and emulsifier, and the mixture is made up to the desired concentration with water.\nRice is grown in climatic chambers in small pots containing vermiculite, until the first leaf reaches a size of 1-2 cm. At this stage, the pots are placed in the prepared active compound solutions to a height corresponding to half the height of the pot.\nAfter the development of the third leaf, the length of all plants is determined, and expressed as a percentage of the length of the control plants. 100% means growth corresponding to that of the control plants, values below 100% mean inhibition of growth, and values above 100% mean promotion of growth."}, "[4]": {"system": "Venturia inaequalis", "assay": "Venturia test (apple)/protective", "conditions": "young apple plants sprayed, then inoculated; evaluation 12 days after inoculation; compared with comparative substance (c)", "protocol": "Venturia test (apple)/protective/ Solvent: 4.7 parts by weight of acetone Emulsifier: 0.3 parts by weight of alkylaryl polyglycol ether. To produce a suitable preparation of active compound, 1 part by weight of active compound is mixed with the stated amounts of solvent and emulsifier, and the concentrate is diluted with water to the desired concentration. To test for protective activity, young plants are sprayed with the preparation of active compound until dripping wet. After the spray coating has dried on, the plants are inoculated with an aqueous conidia suspension of the apple scab causative organism (Venturia inaequalis) and then remain in an incubation cabinet at 20° C. and 100% relative atmospheric humidity for 1 day. The plants are then placed in a greenhouse at 20° C. and a relative atmospheric humidity of about 70%. Evaluation is carried out 12 days after the inoculation."}, "[5]": {"system": "Soya bean plants", "assay": "Inhibition of growth of soya beans", "conditions": "sprayed until dripping wet; measured after 3 weeks; compared with prior-art compound (D)", "protocol": "Inhibition of growth of soya beans\nas §1, §2, §3\nSoya bean plants are grown in a greenhouse until the first secondary leaf has unfolded completely. In this stage, the plants are sprayed with the preparations of active compound until dripping wet. After 3 weeks, the additional growth is measured on all the plants and the inhibition of growth in per cent of the additional growth of the control plants is calculated. 100% inhibition of growth means that growth has stopped and 0% denotes a growth corresponding to that of the control plants."}}, "data": [{"smiles": "OC(Cn1cncn1)(c1ccc(Cl)cc1)C1(Oc2ccccc2)CC1", "note": "(stereo not shown) [Compound I-5]", "values": [{"measurement": "inhibition of growth of barley (per cent of additional growth of control plants)", "setting": "[1]", "result": "more pronounced inhibition of growth than the compounds (A), (B), (C) and (D)"}, {"measurement": "inhibition of growth of cotton (per cent of additional growth of control plants)", "setting": "[2]", "result": "more pronounced inhibition of growth than the compound (A)"}, {"measurement": "inhibition of growth of rice (length of plants as percentage of control plants)", "setting": "[3]", "result": "pronounced inhibition of growth"}]}, {"smiles": "CCCCSC1(C(O)(Cn2cncn2)c2ccc(Cl)cc2)CC1", "note": "(stereo not shown) [Compound I-6]", "values": [{"measurement": "inhibition of growth of rice (length of plants as percentage of control plants)", "setting": "[3]", "result": "pronounced inhibition of growth"}]}, {"smiles": "CCSC1(C(O)(Cn2cncn2)c2ccc(Cl)cc2)CC1", "note": "(stereo not shown) [Compound I-1, 1-(4-chlorophenyl)-1-[1-(ethylthio)-1-cyclopropyl]-2-(1,2,4-triazol-1-yl)1-ethanol]", "values": [{"measurement": "inhibition of growth of rice (length of plants as percentage of control plants)", "setting": "[3]", "result": "pronounced inhibition of growth"}, {"measurement": "protective activity against apple scab (Venturia inaequalis)", "setting": "[4]", "result": "better activity than the known comparative substance (c)"}]}, {"smiles": "CC[S+]([O-])C1(C(O)(Cn2cncn2)c2ccc(Cl)cc2)CC1", "note": "(stereo not shown) [Compound I-3, 1-(4-chlorophenyl)-1-[1-(ethylsulphinyl)-1-cyclopropyl]-2-(1,2,4-triazol-yl)1-ethanol]", "values": [{"measurement": "inhibition of growth of barley (per cent of additional growth of control plants)", "setting": "[1]", "result": "more pronounced inhibition of growth than the compounds (A), (B), (C) and (D)"}, {"measurement": "inhibition of growth of cotton (per cent of additional growth of control plants)", "setting": "[2]", "result": "more pronounced inhibition of growth than the compound (A)"}, {"measurement": "inhibition of growth of soya beans (per cent of additional growth of control plants)", "setting": "[5]", "result": "more pronounced inhibition of growth than the compound (D)"}, {"measurement": "inhibition of growth of rice (length of plants as percentage of control plants)", "setting": "[3]", "result": "pronounced inhibition of growth"}]}]}
